# Source: US20190314311A1, “PHARMACEUTICAL COMPOSITION” (JAPAN SCIENCE AND TECHNOLOGY AGENCY, priority 2016, published 2019)
# How the values were obtained:
# Assay type in all cases: biochemical
# [1] = test system: abnormally expanded PolyQ protein; assay: in vitro screening assay of abnormally expanded PolyQ protein aggregation by the turbidity method; details: screening of PolyQ aggregation inhibiting compounds
# Text: The present inventors established an in vitro screening assay system capable of conveniently evaluating the aggregation of abnormally expanded PolyQ protein by the turbidity method (U.S. Pat. No. 6,632,616).
# Thio-Q62 protein [2] = assay: seed-induced polyQ aggregation reaction (turbidity); details: 10 μM Thio-Q62 + seeds, 400 mM arginine or proline, 37° C., 7 days
# Protocol: (§1) A solution in which abnormally expanded proteins were dissolved in physiological saline phosphate (PBS) was used as a measurement sample. The solution was incubated at 37° C., and turbidity at 405 nm was measured every 24 hours using a microplate reader “Spectramax Plus plate reader” (Molecular Devices Inc.).
# Thio-Q62 protein [3] = assay: protein aggregation turbidity assay; details: 10 μM thio-Q62, PBS, 37° C.; arginine 100, 200 or 400 mM; proline 400 mM; Thio-Q62 alone = 100%
# Protocol: In the subsequent experiments, the protein aggregation turbidity assay was performed by the method described in Non-Patent Document 6. Specifically, it was performed as follows.
# as §1
# As an abnormally expanded PolyQ protein, a Thioredoxin-Q62 (Thio-Q62) fusion protein consisting of Thioredoxin and a PolyQ stretch with 62 glutamines was used.
# As a control, Thio-Q62 protein alone was incubated in the same manner, and the turbidity was measured every 24 hours.
# As controls, a solution containing Thio-Q62 protein alone, and a solution containing Thio-Q62 protein and 400 mM proline were incubated in the same manner, respectively, and turbidity was measured after 5 days. […] The relative turbidity (%) of each solution was measured. The turbidity of the solution containing Thio-Q62 protein alone was set to 100%. In the figure, values represent means±SEM (n=3). “*” represents p<0.05, “***” represents p<0.001, “n.s.” represents not significant.
smiles,measurement,setting,value
"O=C(O)[C@@H]1CCCN1 [proline, reference compound]",PolyQ aggregation inhibitory activity,[1],no PolyQ aggregation-inhibitory effect
same,seed-induced increase in turbidity,Thio-Q62 protein [2],the effects as observed with arginine was not obtained
same,relative turbidity after 5 days,Thio-Q62 protein [3],did not exert any anti-aggregation effect
